One test addresses T1, human TGR5 receptor (Homo sapiens, UniProt Q8TDU6).
T1 construct: host or cells: CHO-K1 (hTGR5-CHO cells)
T1 sequence (Q8TDU6 1-330): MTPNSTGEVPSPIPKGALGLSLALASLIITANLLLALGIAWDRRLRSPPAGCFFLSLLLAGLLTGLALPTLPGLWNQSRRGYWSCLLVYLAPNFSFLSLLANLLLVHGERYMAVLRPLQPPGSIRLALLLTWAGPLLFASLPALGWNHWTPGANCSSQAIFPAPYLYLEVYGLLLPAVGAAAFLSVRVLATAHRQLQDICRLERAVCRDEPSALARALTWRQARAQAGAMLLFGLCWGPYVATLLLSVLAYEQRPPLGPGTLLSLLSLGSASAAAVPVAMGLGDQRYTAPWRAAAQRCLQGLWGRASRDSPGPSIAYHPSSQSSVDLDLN
Nature of the test: Human TGR5 cAMP production assay. The format is cell-based. Particulars: human TGR5, luminescent cAMP assay; coded A-D; read-out: Human TGR5 Lum. cAMP Activity (EC50). The method, boiled down: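 CHO-K1 cells stably expressing human TGR5, with IBMX and cAMP antibody, were exposed to half-log serially diluted compound for 1 h at room temperature. cAMP measured by enzyme-fragment complementation luminescence (XS+ kit) after overnight incubation; EC50 values reported.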

The target in the next test is T2, mouse TGR5 receptor (Mus musculus, UniProt Q80SS6).
T2 construct: expressed in transfected cells; host or cells: HEK293-EBNA (293 c18, ATCC CRL10852), Hygromycin B selection
T2 sequence (Q80SS6 1-329): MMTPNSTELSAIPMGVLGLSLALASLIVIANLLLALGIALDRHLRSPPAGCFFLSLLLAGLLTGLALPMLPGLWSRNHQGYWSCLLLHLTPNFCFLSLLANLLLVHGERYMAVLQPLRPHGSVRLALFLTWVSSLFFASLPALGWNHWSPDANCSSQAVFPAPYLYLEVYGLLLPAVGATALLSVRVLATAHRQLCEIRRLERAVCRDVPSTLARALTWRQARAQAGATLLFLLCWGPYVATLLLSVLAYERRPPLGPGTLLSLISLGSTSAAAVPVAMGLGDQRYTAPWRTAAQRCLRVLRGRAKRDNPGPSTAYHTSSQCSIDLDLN
Nature of the test: Mouse TGR5 cAMP production assay (HTRF, Cisbio cAMP HiRange). Particulars: HEK293-EBNA cells overexpressing mouse TGR5, HTRF cAMP HiRange; coded A-D. Format: cell-based. The method, boiled down: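 cAMP read by HTRF competition after 1 h room-temperature compound exposure of mouse TGR5-overexpressing HEK293-EBNA cells. Cells were suspended in serum-free DMEM containing 500 μM IBMX; compounds ran as 12-point half-log dilutions in duplicate; EC50 derived.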
(In general: Cyclic AMP is a second messenger, typically raised through Gs and lowered through Gi signalling.)

In general, EC50 refers to the concentration that produces a half-maximal response.

Consider `Cc1cnccc1-c1cccc(CCNS(=O)(=O)c2ccccc2C(F)(F)F)c1` [Compound 5BD, N-(3-(3-methylpyridin-4-yl)phenethyl)-2-(trifluoromethyl)benzenesulfonamide], for which the EC50 on human TGR5 receptor was 100 to 999 nM; on mouse TGR5 receptor, 1000 to 30000 nM.
For the compound `Cc1cnccc1-c1cccc([C@H](CC(=O)O)NS(=O)(=O)c2ccccc2C(F)(F)F)c1` [Compound 18, (S)-3-(3-(3-methylpyridin-4-yl)phenyl)-3-(2-(trifluoromethyl)phenylsulfonamido)propanoic acid], the concentration giving a half-maximal response (EC50) on human TGR5 receptor lay in the range of 1000 to 30000 nM; on mouse TGR5 receptor it was 100 to 999 nM.
As for `Cc1cnccc1-c1cccc([C@H](CCCC(=O)O)NS(=O)(=O)c2ccccc2C(F)(F)F)c1` [Compound 19AA, (S)-5-(3-(3-methylpyridin-4-yl)phenyl)-5-(2-(trifluoromethyl)phenylsulfonamido) pentanoic acid], the EC50 at human TGR5 receptor and on mouse TGR5 receptor was 100 to 999 nM throughout.
Regarding `Cc1cnccc1-c1cccc([C@H](C)N(CCCCNCCC(=O)O)S(=O)(=O)c2cccc(Cl)c2C)c1` [Compound 33, (S)-3-((4-(3-chloro-2-methyl-N-(1-(3-(3-methylpyridin-4-yl)phenyl)ethyl)phenylsulfonamido)butyl)amino)propanoic acid], the EC50 on human TGR5 receptor and on mouse TGR5 receptor was 100 to 999 nM throughout.
With `Cc1cnccc1-c1cccc([C@H](CCCC#N)NS(=O)(=O)c2cccc(Cl)c2C)c1` [Compound 2BZ], the concentration giving a half-maximal response (EC50) on human TGR5 receptor and on mouse TGR5 receptor was under 100 nM each time.
`COc1cnccc1-c1cccc(CCNS(=O)(=O)c2ccccc2C(F)(F)F)c1` [Compound 1CF]: the EC50 on human TGR5 receptor fell in the range of 100 to 999 nM; on mouse TGR5 receptor, 1000 to 30000 nM.
For the compound `CC(C)(NS(=O)(=O)c1ccccc1C(F)(F)F)c1cccc(-c2cnc3nccn3c2)c1` [Compound 5AM, N-(2-(3-(imidazo [1,2-a]pyrimidin-6-yl)phenyl)propan-2-yl)-2-(trifluoromethyl)benzenesulfonamide], the EC50 on human TGR5 receptor and at mouse TGR5 receptor was 1000 to 30000 nM each time.
Consider `COc1cnccc1-c1cccc(C(C)(C)NS(=O)(=O)c2cccc(C(F)(F)F)c2C)c1` [Compound 2BM], for which the EC50 on human TGR5 receptor is under 100 nM; at mouse TGR5 receptor, 100 to 999 nM.
Consider `COc1cnccc1-c1cccc(C(C)(C)NS(=O)(=O)c2ccc(F)cc2C(F)(F)F)c1` [Compound 2BD], for which the EC50 on human TGR5 receptor is under 100 nM; at mouse TGR5 receptor it was 100 to 999 nM.
On to `CCc1cnccc1-c1cccc([C@H](C)N(CCCC(=O)NCC[N+](C)(C)C)S(=O)(=O)c2cccc(Cl)c2C)c1` [Compound 27AE, (S)-2-(4-(3-chloro-N-(1-(3-(3-ethylpyridin-4-yl)phenyl)ethyl)-2-methylphenylsulfonamido)butanamido)-N,N,N-trimethylethanaminium], for which the figures for the EC50 on human TGR5 receptor and at mouse TGR5 receptor were under 100 nM and 100 to 999 nM, respectively.
The like results for `Cc1cnsc1-c1cccc([C@H](C)NS(=O)(=O)c2cccc(Cl)c2C)c1` [Compound 7AA, (S)-3-chloro-2-methyl-N-(1-(3-(4-methylisothiazol-5-yl)-phenyl)ethyl)benzenesulfonamide] were, in that order, 1000 to 30000 nM and over 30000 nM.
As for `Cc1cnccc1-c1cccc([C@@H](C)N(CCCC(=O)NCCS(=O)(=O)O)S(=O)(=O)c2cccc(Cl)c2C)c1` [Compound 21AP, (R)-2-(4-(3-Chloro-2-methyl-N-(1-(3-(3-methylpyridin-4-yl)phenyl)ethyl)phenylsulfonamido)butanamido)ethane-sulfonic acid], the values for the EC50 on human TGR5 receptor and on mouse TGR5 receptor were under 100 nM and 1000 to 30000 nM, respectively.
For `Cc1cnccc1-c1cccc(C2CNCCN2S(=O)(=O)c2cccc(Cl)c2C)c1` (stereo not drawn) [Compound 43AE, 1-((3-chloro-2-methylphenyl)sulfonyl)-2-(3-(3-methylpyridin-4-yl)phenyl)piperazine], the EC50 at human TGR5 receptor and at mouse TGR5 receptor was 100 to 999 nM in each case.
Regarding `Cc1cnccc1-c1cccc([C@H](C)N(CCCC(=O)NCCS(=O)(=O)O)S(=O)(=O)c2ccccc2C)c1` [Compound 20AQ, (S)-2-(4-(2-methyl-N-(1-(3-(3-methylpyridin-4-yl)phenyl)ethyl)phenylsulfonamido)butanamido)ethanesulfonic acid], the EC50 on human TGR5 receptor is under 100 nM; on mouse TGR5 receptor it was 100 to 999 nM.
In the case of `Cc1cnccc1-c1cccc(C2CN(C(=O)OC(C)(C)C)CCN2S(=O)(=O)c2ccccc2C(F)(F)F)c1` (racemic) [Compound 42, (+/−) tert-butyl 3-(3-(3-methylpyridin-4-yl)phenyl)-4-((2-(trifluoromethyl)phenyl)sulfonyl)-piperazine-1-carboxylate], the EC50 on human TGR5 receptor and at mouse TGR5 receptor was 1000 to 30000 nM in each case.
Consider `CCc1cnccc1-c1cccc(C2CN(C(=O)CCC(=O)NCCCS(=O)(=O)O)CCN2S(=O)(=O)c2cccc(Cl)c2C)c1` (stereo not drawn) [Compound 53AC, 3-(4-(4-((3-chloro-2-methylphenyl)sulfonyl)-3-(3-(3-ethylpyridin-4-yl)phenyl)piperazin-1-yl)-4-oxobutanamido)propane-1-sulfonic acid], for which the concentration giving a half-maximal response (EC50) on human TGR5 receptor was 100 to 999 nM; on mouse TGR5 receptor, under 100 nM.
The like results for `Cc1cnccc1-c1cccc([C@@H](C)N(CCCC(=O)O)S(=O)(=O)c2cccc(Cl)c2C)c1` [Compound 16AA, (R)-4-(3-chloro-2-methyl-N-(1-(3-(3-methylpyridin-4-yl)-phenyl)ethyl)phenylsulfonamido)butanoic acid] were, in that order, 100 to 999 nM and 1000 to 30000 nM.
Consider `Cc1cnccc1-c1cccc(C(C)(C)NS(=O)(=O)c2ccccc2C)c1` [Compound 2BX], for which the EC50 at human TGR5 receptor and at mouse TGR5 receptor was under 100 nM throughout.
With `Cc1c(Cl)cccc1S(=O)(=O)N(CCCC(=O)NCCS(=O)(=O)O)C(C)(C)c1cccc(-c2ccncc2CO)c1` [Compound 20AO, 2-(4-(3-chloro-N-(2-(3-(3-(hydroxymethyl)pyridin-4-yl)phenyl)propan-2-yl)-2-methylphenylsulfonamido)butanamido)ethanesulfonic acid], the EC50 is under 100 nM at human TGR5 receptor and 100 to 999 nM at mouse TGR5 receptor.
In the case of `COc1cccc(S(=O)(=O)N2CCN(C(=O)CS(=O)(=O)O)CC2c2cccc(-c3ccncc3C)c2)c1` (stereo not drawn) [Compound 49AB, 2-(4-((3-methoxyphenyl)sulfonyl)-3-(3-(3-methylpyridin-4-yl)phenyl)piperazin-1-yl)-2-oxoethanesulfonic acid], the EC50 on human TGR5 receptor is 100 to 999 nM; on mouse TGR5 receptor, under 100 nM.
`COc1cccc(S(=O)(=O)N2CCN(C(=O)CCC(=O)O)CC2c2cccc(-c3ccncc3C)c2)c1` (stereo not drawn) [Compound 46AJ, 4-(4-((3-methoxyphenyl)sulfonyl)-3-(3-(3-methylpyridin-4-yl)phenyl)piperazin-1-yl)-4-oxobutanoic acid]: the EC50 fell in the range of 1000 to 30000 nM on human TGR5 receptor and 100 to 999 nM at mouse TGR5 receptor.
As to `Cc1cnccc1-c1cccc(C(C)(C)NS(=O)(=O)c2cc(Br)ccc2C)c1` [Compound 2BW], the EC50 on human TGR5 receptor is under 100 nM; at mouse TGR5 receptor, 100 to 999 nM.
In the case of `Cc1cnccc1-c1cccc(C(C)N(CCCC(=O)NCCSO)S(=O)(=O)c2ccccc2C(F)(F)F)c1` (stereo not drawn) [Compound 20BC, N-(2-(hydroxythio)ethyl)-4-(N-(1-(3-(3-methylpyridin-4-yl)phenyl)ethyl)-2-(trifluoromethyl)phenylsulfonamido)butanamide], the EC50 was under 100 nM on human TGR5 receptor and 100 to 999 nM at mouse TGR5 receptor.
The like results for `Cc1cnccc1-c1cccc([C@H](C)N(CCCC(=O)NCCC(=O)O)S(=O)(=O)c2cccc(Cl)c2C)c1` [Compound 21AH, (S)-3-(4-(3-chloro-2-methyl-N-(1-(3-(3-methylpyridin-4-yl)phenyl)ethyl)phenylsulfonamido)butanamido)propanoic acid] were, in that order, under 100 nM and 100 to 999 nM.
In the case of `Cc1cnccc1-c1cccc(C(C)(C)N(CCCN)S(=O)(=O)c2cccc(Cl)c2C)c1` [Compound 23, N-(3-aminopropyl)-3-chloro-2-methyl-N-(2-(3-(3-methylpyridin-4-yl)phenyl)propan-2-yl)benzenesulfonamide], the EC50 at human TGR5 receptor was under 100 nM; on mouse TGR5 receptor, 1000 to 30000 nM.
`CCc1cnccc1-c1cccc([C@H](C)N(CCCC(=O)O)S(=O)(=O)c2ccccc2C(F)(F)F)c1` [Compound 15AB, (S)-4-(N-(1-(3-(3-ethylpyridin-4-yl)phenyl)ethyl)-2-(trifluoromethyl)phenylsulfonamido)butanoic acid]: the EC50 on human TGR5 receptor and at mouse TGR5 receptor was under 100 nM in each case.
On to `CC(C)(NS(=O)(=O)c1cccc(C(F)(F)F)c1)c1cccc(-c2ccncc2CO)c1` [Compound 5AE, N-(2-(3-(3-(hydroxymethyl)-pyridin-4-yl)phenyl)propan-2-yl)-3-(trifluoromethyl)benzenesulfonamide], for which the EC50 on human TGR5 receptor is under 100 nM; on mouse TGR5 receptor, 1000 to 30000 nM.

The values are drawn from patent publication US11236055B2 (Venenum Biodesign, LLC, priority 2016, dated 2022).
